Earlier results as cited in paper PMC10976394 (ACS Omega, 2024).

Settings: human; cited from earlier work

CC[C@@H]1CN(C(=O)NCC(F)(F)F)C[C@@H]1c1cnc2cnc3[nH]ccc3n12 [upadacitinib]
clearance behavior under the arthritic condition: reduced the clearance behavior
